Counter-ions that a name gives are not always drawn.
Tests used:
[1] = test system: chlordiazepoxide + amphetamine induced hyperactivity, Sprague Dawley rats; experiment: Mania/bipolar model: chlordiazepoxide + d-amphetamine induced hyperactivity, locomotor activity; format: in vivo, rat
Procedure: Subjects: Female Sprague Dawley rats (Hilltop Lab Animals, Scottdale, Pa.), weighing 150-200 g at the beginning of the experiment, were used in the experiment described in this example. Animals were individually housed in standard shoebox cages and maintained on a 12:12 h light-dark cycle (lights on at 0600). All animals were allowed food and water ad libitum throughout the experimental procedure. Prior to arrival to the testing facility, the rats were anesthetized with vaporized Isoflurane and catheters were surgically implanted into the jugular vein. The catheters were made of silastic medical grade tubing (15 cm long, 0.02″ internal diameter, 0.037″ external diameter), fastened with sutures to muscle near the jugular vein and at the nape of the neck, then sealed with smooth pieces of monofilament that were secured at the nape of the neck.
Lithium chloride (LiCl), chlordiazepoxide hydrochloride (CDP) and d-amphetamine sulfate (Amph) were obtained from Sigma Chemical Company (St. Louis, Mo.). LiCl was dissolved in a vehicle of isotonic saline and injected intraperitoneally (i.p.) at a dose of 2 mEq/kg. CDP and Amph were dissolved in a vehicle of sterile water (Phoenix Scientific, Inc., St. Joseph, Mo.) and injected subcutaneously (s.c.) at a dose of 12.5 mg/kg and 1.18 mg/kg, respectively. Combination treatment of CDP and Amph represented the s.c. injection of a 1:1 mixture of both compounds at the above referenced doses. Compound of Example 1 was dissolved in dimethylsulfoxide (DMSO) and brought to volume with propylene glycol (PG) such that the final vehicle represented a 4% DMSO/96% PG solution. […]
Thirty minutes after final s.c. dosing with either CDP+Amph, Amph alone or vehicle, rats were placed in locomotor activity testing apparatus. […] Data were analyzed using a priori planned analyses of variance where an effect was considered significant if p<0.05.

[2] = test system: streptozoticin-induced tactile allodynia, Sprague Dawley rats; experiment: Diabetic model of neuropathic pain (streptozoticin and von Frey test); format: in vivo, rat; conditions: 10 mg/kg, i.v.; von Frey thresholds over 90 min; STZ diabetic model
Procedure: To test agents for activity against systemic polyneuropathy nerve injury-induced tactile allodynia, animals were treated with streptozoticin (STZ) to create a diabetic condition by selective cytotoxic action upon pancreatic β-islet cells that produce insulin following the method of Courteix, et al. (Courteix C., et al., (1993) Pain, April;53(1):81-8). In brief, male Sprague Dawley rats (wt. 200-275 g) received an injection of STZ (75 mg/kg, i.p.) and diabetes was confirmed three weeks after STZ injection by measurement of tail vein blood glucose levels. After 3-4 weeks, paw withdrawal to light touch was assessed as described by Chaplan et al. (Chaplan S. R., et al., (1994) J Neurosci Methods, July;53(1):55-63). In brief, rats are placed in a plastic cage with a wire mesh bottom and allowed to acclimate for 15-30 minutes, until cage exploration and grooming stops. The plantar surface of each hind paw is touched with a series of von Frey hairs with varying stiffness requiring a known force to buckle to determine the nociceptive threshold. Adult male Sprague Dawley rats (avg. wt. 300 g) were tested in the present study. After acclimation, baseline von Frey thresholds were assessed for the injured hindpaw at -15 min. All test compounds were delivered at 0 min by the intravenous (i.v.) route in a volume of 0.5-2 ml/kg. […] Animals were tested in one of the following 4 treatment conditions: […] Following drug administration, von Frey thresholds are measured at 15, 30, 60 and 90 min. Data were analyzed by a 2-way repeated measures analysis of variance followed by Dunnett's test (p<0.05). Experimenters were kept blind to the treatment condition of rats they tested. […] Specifically, drug effects can be described in terms Δ% MPE according to the following equation: {[…] under the curve for von Frey thresholds of the drug-treated group; AUCvehicle=area under the curve for von Frey thresholds in the vehicle group; Time=duration of post-drug testing period (90 min); and Max=maximum von Frey threshold (15 g).

[3] = test system: nerve injury-induced tactile allodynia (L5/L6 ligation), Sprague Dawley rats; experiment: Chung model of neuropathic pain (Chung surgery and von Frey test); format: in vivo, rat; conditions: 3 mg/kg, i.v., von Frey thresholds over 90 min
Procedure: To test agents for activity against peripheral mononeuropathy nerve injury-induced tactile allodynia, male Sprague Dawley rats (wt. 120-160 g) were surgically prepared with unilateral tight ligation of spinal nerves L5 and L6 following the method of Kim and Chung (Kim S. H., Chung J. M. (1992) Pain, September;50(3):355-63). After 3-4 weeks recovery, paw withdrawal to light touch was assessed as described by Chaplan et al. (Chaplan S. R., et al., (1994) J. Neurosci Methods, July;53(1):55-63). In brief, rats are placed in a plastic cage with a wire mesh bottom and allowed to acclimate for 15-30 minutes, until cage exploration and grooming stops. The plantar surface of each hind paw is touched with a series of von Frey hairs with varying stiffness requiring a known force to buckle to determine the nociceptive threshold. Adult male Sprague Dawley rats (avg. wt. 340 g) were tested in the present study. After acclimation, baseline von Frey thresholds were assessed for the injured hindpaw at −15 min. All test compounds were delivered at 0 min by the intravenous (i.v.) route in a volume of 0.5-2 ml/kg. The vehicle for test compounds was 100% PEG-400. For gabapentin the vehicle was deionized H2O. Animals were tested in one of the following 4 treatment conditions: (a) PEG400, (b) gabapentin (Neurontin) 100 mg/kg, (c) test compounds 3 mg/kg and (d) test compounds 10 mg/kg. Following drug administration, von Frey thresholds are measured at 15, 30, 60 and 90 min. Data were analyzed by a 2-way repeated measures analysis of variance followed by Dunnett's test (p<0.05). Experimenters were kept blind to the treatment condition of rats they tested.
Reversal of neuropathic pain behavior may be expressed as a percentage (0-100%) of the maximum possible effect, over and above the vehicle effects. Specifically, drug effects can be described in terms Δ% MPE according to the following equation: [formula]
AUCdrug=area under the curve for von Frey thresholds of the drug-treated group;
AUCvehicle=area under the curve for von Frey thresholds in the vehicle group;
Time=duration of post-drug testing period (90 min); and
Max=maximum von Frey threshold (15 g).
For example, a compound which immediately reversed neuropathic pain behavior to normal levels, such that animals only responded to the highest von Frey filament (15 g), and maintained normal levels through out the post-drug testing period (90 min) would be calculated as Δ% MPE=100%.

mKCNQ2 channels = biological target: T1, mKCNQ2 channels (Mus musculus, UniProt Q9Z351); experiment: Whole-cell patch-clamp, HEK 293 stable cell line expressing mKCNQ2 channels; format: cell-based; conditions: HEK 293 mKCNQ2, Hill fit
T1 construct: expressed in transfected cells
Procedure: Whole-cell patch-clamp recordings were made from an HEK 293 stable cell line expressing mKCNQ2 channels, maintained in culture for 1-2 days. Patch pipettes had initial resistances of 2.5-4 MΩ. Currents were recorded with an EPC-9 amplifier (HEKA, Lambrecht, Germany) controlled with software (Pulse, HEKA) run on a standard lab PC. Series resistance compensation was used during current recording, and set at 80%. The series resistance (R) and cell capacitance (C) were determined electronically by subtracting the capacitive currents at the onset and offset of a 5 mV voltage step. The cancellation of whole-cell capacitance transients was virtually complete in all cells. Analog current signals were low-pass filtered at 2.9 kHz using a four-pole Bessel filter −3 dB) and stored on a local network server computer at a sampling rate of […]. All recordings were performed at room temperature (20-22° C.). The pipette solution contained (mM): KCl, 150; CaCl2, 2.5; EGTA, 5; MgCl2, 1; HEPES, 10; pH to 7.3 with KOH, and Osmolality of 290-300 mOsm. The extracellular solution contained (mM): NaCl, 140; KCl, 2.5; CaCl2, 2.5; MgCl2, 1; glucose, 10; HEPES, 10; pH to 7.3 with NaOH, and Osmolality of 305-310 mOsm
Concentration response data were generated by measuring the difference in the steady-state amplitude of current in the presence of compound at the end of a 600 ms voltage-clamp step from a holding potential of −80 mV. The concentration-response data were fitted with Hill-type equations: […]
where I is the steady-state current at a given concentration of agonist [A]; and Imax, EC50 and nH are parameters estimated from the curve fit. In some cases the concentration-response data were fitted with equations consisting of the sum of two Hill-type components. Current-voltage (I/V) relationships for agonist-evoked currents were obtained by performing 600 ms voltage steps (−110 mV to +40 mV) in the absence and presence of agonist.

[4] = test system: cortical spreading depression (KCl application), Long-Evans rats; experiment: In vivo electrophysiology: number of cortical spreading depressions produced by KCl application; conditions: 1 mg/kg, i.v., 15 min prior to KCl; rat
Description: Male Long-Evans rats (300-450 g) were used in the present studies (Harlan). Rats were anesthetized with urethane anesthesia (1.2 g/kg i.p.) and placed in a stereotaxic frame. Under anesthesia a Silastic catheter was placed in the jugular vein of the rats. The skull was exposed using a scalpel. A small hole (approximately 2 mm by 3 mm) was drilled in to the skull rostral to the lambdoid suture using a microdrill and steel burr. The dura was disrupted and a drop of mineral oil was placed in this hole to prevent dehydration of the underlying cortex. Ultimately this hole was used for the application of crystalline KCl (described below).
Two additional holes were place in the skull unilaterally at 4 and 8 mm rostral to the application hole. Silver wire electrodes were placed in these latter holes and secured to the skull using acrylic cement. A similar silver wire electrode was sutured to the nuchal muscle to serve as a reference electrode. Electrical DC recordings were obtained using a standard differential amplifier (Warner, DP-304) and commercially available data acquisition equipment (Cambridge Electronic Design, 1401 A-D converter and Spike2 software).
All experimental procedures were conducted while the rats were maintained under anesthesia. Rats were injected with test compound, valproic acid or vehicle (100% PEG-400) 15 min prior to the application of crystalline KCl to the application site described above. All injections were given via the jugular vein at a volume of ≦0.5 ml/kg. Only one treatment was tested per animal. The effect of valproic acid was also determined in this study due to the fact that Depakote™ (divalproex sodium) is one of only three drugs currently indicated for the prophylatic treatment of migraine headache. Valproic acid (30-200 mg/kg i.v.) was obtained from Sigma Chemical Company and was dissolved in a vehicle of isotonic saline.
KCl was applied to the application site for 10 min and was then removed using a saline soaked cotton swab. Mineral oil was subsequently reapplied to the application site. Typically, this application produced a long-lasting series of spreading depressions. The number of spreading depressions produced by this KCl application was the primary measure used to access the effectiveness of compounds in this assay.
Data were analyzed using analyses of variance followed by the Dunnett post-hoc test for pairwise comparisons, when appropriate. A difference was considered significant when p≦0.05.
The effect of representative compounds of Formula I on spreading depression is expressed as the percent reduction from vehicle control and is listed in Table 3.

T1 sequence (Q9Z351 whole entry): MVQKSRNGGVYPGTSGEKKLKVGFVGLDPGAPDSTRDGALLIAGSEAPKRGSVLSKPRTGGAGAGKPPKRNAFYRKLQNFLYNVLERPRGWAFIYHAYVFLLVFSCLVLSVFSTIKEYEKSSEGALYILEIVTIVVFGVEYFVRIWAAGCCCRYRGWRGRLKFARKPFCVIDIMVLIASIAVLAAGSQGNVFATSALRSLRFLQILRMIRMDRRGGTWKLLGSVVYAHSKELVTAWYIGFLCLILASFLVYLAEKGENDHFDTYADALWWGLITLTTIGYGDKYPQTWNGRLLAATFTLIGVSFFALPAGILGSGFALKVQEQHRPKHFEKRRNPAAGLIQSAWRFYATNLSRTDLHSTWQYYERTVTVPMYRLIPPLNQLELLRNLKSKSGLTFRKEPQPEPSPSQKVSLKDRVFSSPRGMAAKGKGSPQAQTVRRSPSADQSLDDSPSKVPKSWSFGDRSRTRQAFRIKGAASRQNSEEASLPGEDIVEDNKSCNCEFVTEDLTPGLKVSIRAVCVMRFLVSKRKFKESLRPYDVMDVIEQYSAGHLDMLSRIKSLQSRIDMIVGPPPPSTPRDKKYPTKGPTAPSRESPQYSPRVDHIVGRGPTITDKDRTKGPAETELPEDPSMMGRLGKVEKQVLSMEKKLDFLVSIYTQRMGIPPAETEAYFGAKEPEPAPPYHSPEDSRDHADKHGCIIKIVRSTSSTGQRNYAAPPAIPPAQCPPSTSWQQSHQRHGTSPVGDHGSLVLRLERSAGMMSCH

## C[C@H](NC(=O)/C=C/c1ccc(F)cc1)c1ccc2ccccc2c1 [Compound of Example 1]
[1]; 5 mg/kg i.v. 45 minutes pre-test, then chlordiazepoxide + d-amphetamine, first 10 minutes of testing
  Horizontal Activity Counts: 7,859.2 + 661.21 counts
[1]; 5 mg/kg i.v. 45 minutes pre-test, F(1,16)=10.4, p=0.005
  Effect on augmentation of locomotor scores produced by the combination treatment: significantly prevented

## C[C@H](NC(=O)/C=C/c1cc(F)ccc1F)c1cccc(N2CCOCC2)c1 [Example 90, (S)-3-(2,5-Difluoro-phen-yl)-N-[1-(3-morpho-lin-4-yl-phenyl)-eth-yl]-acrylamide]
[2]
  AUC (Δ% MPE): 56 (10 mg/kg, i.v.) Δ% MPE
[3]
  AUC (Δ% MPE): 13 (3 mg/kg, i.v.) Δ% MPE
mKCNQ2 channels; @ −40 mV
  EC50: 1.2 µM
mKCNQ2 channels; HEK293, read-out: Imax (%)
  Emax: 523%
[4]
  % Reduction (number of spreading depressions, from vehicle control): 37 (1 mg/kg, i.v.) %

## C[C@H](N)Cc1ccccc1 [d-amphetamine, d-amphetamine sulfate, reference compound]
[1]; rat, in vivo
  Horizontal Activity Counts: 8,772.3 + 426.02 counts

— patent US6831080B2, “Cinnamide derivatives as KCNQ potassium channel modulators” (Bristol-Myers Squibb Company, priority 2001, dated 2004)
